Assay results from publication PMC7415810, “A novel nucleolin-binding peptide for Cancer Theranostics” (Theranostics, 2020).

What was measured:
MDA-MB-231-luc xenograft = test: Tumorigenesis experiment, MDA-MB-231-luc breast cancer xenograft
Experimental: All animal experiments were performed in accordance with IACUC guidelines (GIST-2019-040). For tumorigenesis experiments, anesthetized 6-week-old female NOD-scid Il2rg^-^/^- mice (NPG^TM, VITALSTAR) were inoculated in the mammary fat pad with 1 × 10^6 MDA-MB-231-luc cells in a 100 μl volume (n = 5 for each group). After tumor cell inoculation, when the tumor volume reached approximately 100 mm^3, the mice were randomly divided into the following five groups: (i) control, (ii) low-dose paclitaxel (2 mg/kg), (iii) high-dose paclitaxel (10 mg/kg), (iv) AGM-330 (16.68 mg/kg, molar equivalent to 2 mg/kg of PTX), and (v) AGM-330-PTX (19.05 mg/kg, molar equivalent to 2 mg/kg of PTX). The tumor size was measured twice a week, and the tumor volume was calculated with the following formula: volume (mm^3) = [length (mm)] × [width (mm)]^2 × 0.5. For the bioluminescent imaging experiment, D-luciferin (150 mg/kg; PerkinElmer) was intraperitoneally injected into each mouse, and an IVIS 100 imaging system (Xenogen, Corporation, Alameda, CA) was used for bioluminescent monitoring. Mice were anesthetized with vaporized isofurane (BK Pharm, Ilsan, Korea) and placed in an imaging chamber. After 10 min, each animal was imaged with an exposure time of 1 min. All bioluminescent image data were obtained using Living Image software (version 4.5.2, PerkinElmer). Photons detected from tumors were converted to average radiance values (photon/sec/cm^2/sr), which are quantitative data obtained from a region of […] (ROI) and include the photons emitted by bioluminescent cells from an assigned rectangular area over the whole body of each mouse.
A, Cell proliferation inhibition by AGM-330-PTX treatment was determined for 48 h by the WST assay in multiple breast and colorectal cancer cells and in normal cells. B, Schematic representation of the experimental protocol as described in the materials and methods section. Anesthetized 6‑week-old […] NPG mice were inoculated with a 1:1 mix of Matrigel and 1 × 10^6 MDA-MB-231-luc cells into the mammary fat pad. When the volume of primary tumors reached approximately 100 mm^3, tumor-bearing mice were treated with vehicle (PBS), PTX (2 or 10 mg/kg), AGM-330 (16.68 mg/kg, molar equivalent to 2 mg/kg of PTX), or AGM-330-PTX (19.05 mg/kg, molar equivalent to 2 mg/kg of PTX; n = 5/group). C-E, The therapeutic effect of AGM-330-PTX was evaluated in breast cancer xenograft models. C, Primary tumor volume was measured twice a week until the day of sacrifice. The primary tumor volume was calculated by the formula volume (mm^3) = (length (mm)) × (width (mm))^2 × 0.5. D, On the day of sacrifice, all primary tumors were isolated, and (E) the primary tumor weights were evaluated. F-I, Immunohistochemistry (IHC) sections of representative tumors with Ki-67 (F,H) and TUNEL (G,I) staining. Nuclei were stained with DAPI (blue). Scale bar, 50 µm. Bar graphs represent the mean ± SD, and statistical analyses were performed by one-way ANOVA with Dunnett's multiple comparison. *, **, and *** indicate P < 0.05, P < 0.01, and P < 0.001, respectively.
Following in vitro proliferation analysis on cancer lines, we investigated whether AGM-330-PTX could be a potential therapeutic agent in vivo. We inoculated MDA-MB-231-luc cells into the mammary fat pad of NPG mice. After the […] tumors grew to 100 mm^3, comparative efficacy studies were performed by dividing the animals into five groups (n = 5/group) treated with vehicle (PBS), PTX (2 or 10 mg/kg, respectively), AGM-330 (16.68 mg/kg, molar equivalent to 2 mg/kg of PTX), or AGM-330-PTX (19.05 mg/kg, molar equivalent to 2 mg/kg of PTX) twice a week by tail vein injection (Figure 5B). Tumor growth was monitored by measuring volumes twice a week with a caliber rule over the course of 3 weeks.
Figure S11. A-E, NPG TM mice bearing MDA-MB-231-luc tumors were treated twice a week for 21 days with […]

[1] = Release of PTX in vitro (linker hydrolysis) in human serum; format: in vitro ADME; settings: 100 μM stock diluted 10-fold in 100% human serum, 37 °C, HPLC, triplicate
Experimental: (§1) Stock solutions of AGM-330-PTX (100 μM) were diluted 10-fold with pre-warmed 100% human serum (Sigma-Aldrich) or PBS and incubated at 37 °C for 0, 1, 2, 6 and 12 h. […] Each experiment was performed in triplicate.
(§2) Figure S10. A, B, Changes in the HPLC chromatogram of AGM-330-PTX after incubation with human serum (A) or PBS (B). C, D, MS spectra of AGM-330-PTX (C) and AGM-330 (D). E, Time-dependent fluorescence imaging of AGM-330-PTX-Rh in MDA-MB-231 cells. Cells were incubated with 5 μmol/l AGM-330-PTX-Rh. […]
(§3) bit secondary antibody coupled to Alexa Fluor 488. Cells were then fixed with 4 % paraformaldehyde, and the nuclei were stained with DAPI. MERGE represents a merged image of AGM-330, PTX, and nuclear staining by […]

[2] = Release of PTX in vitro (linker hydrolysis) in PBS; format: physicochemical; settings: 100 μM stock diluted 10-fold in PBS, 37 °C, HPLC, triplicate
Experimental: as §1, §2, §3

[3] = AGM-330-PTX treatment, xenograft

CSCC[C@H](NC(=O)[C@H](C)NC(=O)CNC(=O)[C@H](Cc1c[nH]cn1)NC(=O)[C@@H](N)CCCNC(=N)N)C(=O)N[C@H](C(=O)N[C@@H](Cc1ccc(O)cc1)C(=O)N[C@@H](CC(C)C)C(=O)N[C@@H](CCCCN)C(=O)NCCOCCOCCOCCOCCOCCOCCOCCOCCOCCOCCOCCOCCC(=O)NCCCC[C@H](NC(=O)CCOCCOCCOCCOCCOCCOCCOCCOCCOCCOCCOCCOCCNC(=O)[C@H](CCCCN)NC(=O)[C@H](CC(C)C)NC(=O)[C@H](Cc1ccc(O)cc1)NC(=O)[C@@H](NC(=O)[C@H](CCSC)NC(=O)[C@H](C)NC(=O)CNC(=O)[C@H](Cc1c[nH]cn1)NC(=O)[C@@H](N)CCCNC(=N)N)C(C)C)C(=O)NCCCC[C@H](NC(=O)[C@H](CCCCNC(=O)CCOCCOCCOCCOCCOCCOCCOCCOCCOCCOCCOCCOCCNC(=O)[C@H](CCCCN)NC(=O)[C@H](CC(C)C)NC(=O)[C@H](Cc1ccc(O)cc1)NC(=O)[C@@H](NC(=O)[C@H](CCSC)NC(=O)[C@H](C)NC(=O)CNC(=O)[C@H](Cc1c[nH]cn1)NC(=O)[C@@H](N)CCCNC(=N)N)C(C)C)NC(=O)CCOCCOCCOCCOCCOCCOCCOCCOCCOCCOCCOCCOCCNC(=O)[C@H](CCCCN)NC(=O)[C@H](CC(C)C)NC(=O)[C@H](Cc1ccc(O)cc1)NC(=O)[C@@H](NC(=O)[C@H](CCSC)NC(=O)[C@H](C)NC(=O)CNC(=O)[C@H](Cc1c[nH]cn1)NC(=O)[C@@H](N)CCCNC(=N)N)C(C)C)C(=O)N[C@@H](CSC1CC(=O)N(CCC(=O)O[C@@H](C(=O)O[C@H]2C[C@@]3(O)[C@@H](OC(=O)c4ccccc4)[C@@H]4[C@]5(OC(C)=O)CO[C@@H]5C[C@H](O)[C@@]4(C)C(=O)[C@H](OC(C)=O)C(=C2C)C3(C)C)[C@@H](NC(=O)c2ccccc2)c2ccccc2)C1=O)C(=O)O)C(C)C (stereo partly shown) [AGM-330-PTX]
average tumor volume (MDA-MB-231-luc xenograft; 19.05 mg/kg (molar equivalent to 2 mg/kg of PTX), tail vein twice a week, day 21, n = 5): 807 ± 90 mm^3 | final average tumor weight (MDA-MB-231-luc xenograft; 19.05 mg/kg (molar equivalent to 2 mg/kg of PTX), tail vein twice a week, n = 5): 1.3 ± 0.1 g | blood chemistry analysis (ALB, GOT, GPT, TP-PS, UA in serum) (MDA-MB-231-luc xenograft; 19.05 mg/kg twice a week for 21 days, n = 5): no adverse signs of toxicity | mouse body weight versus vehicle (PBS) (MDA-MB-231-luc xenograft; 19.05 mg/kg twice a week, 3 weeks, n = 5): not affected | histology of excised tumors (H&E, Ki-67, TUNEL) (MDA-MB-231-luc xenograft; 19.05 mg/kg twice a week, excised tumors): a reduction in the number of cancerous cells and an increase in apoptotic cell nuclei | decrease of average tumor volume with respect to the same dose PTX (MDA-MB-231-luc xenograft; 19.05 mg/kg versus PTX 2 mg/kg, n = 5): approximately 52% | decrease in tumor volume compared with the PBS-treated group (MDA-MB-231-luc xenograft; [3]): 63% | decrease in tumor weight compared with the PBS-treated group (MDA-MB-231-luc xenograft; [3]): 43% | hydrolysis of the propionic acid linker (release of PTX) in serum [1]: almost completely hydrolyzed after 2 h | hydrolysis of the propionic acid linker (release of PTX) in PBS [2]: fully hydrolyzed in PBS after 12 h
